Assay results as given in PubChem BioAssay (NCI).
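1) Cells in 96-well plates. 2) Compound, 48 h, 5 concentrations. 3) Linear interpolation between surrounding doses. 4) Unreached endpoint = highest concentration. The concentration for 50% growth inhibition is given as GI50. The concentration for full growth arrest is given as TGI.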

What was measured:
Assay in all cases: NCI-60 cell line screen, 48 h
SNB-75 CNS = system: SNB-75 CNS
SK-MEL-28 melanoma = system: SK-MEL-28 melanoma
NCI-H460 lung = system: NCI-H460 lung
SF-539 CNS = system: SF-539 CNS
COLO 205 colon = system: COLO 205 colon
CCRF-CEM leukemia = system: CCRF-CEM leukemia
T-47D breast = system: T-47D breast
OVCAR-3 ovarian = system: OVCAR-3 ovarian
MOLT-4 leukemia = system: MOLT-4 leukemia
CAKI-1 renal = system: CAKI-1 renal
M14 melanoma = system: M14 melanoma
OVCAR-4 ovarian = system: OVCAR-4 ovarian
UACC-257 melanoma = system: UACC-257 melanoma
SF-268 CNS = system: SF-268 CNS
RPMI-8226 leukemia = system: RPMI-8226 leukemia
OVCAR-5 ovarian = system: OVCAR-5 ovarian
HCT-15 colon = system: HCT-15 colon
MALME-3M melanoma = system: MALME-3M melanoma
SF-295 CNS = system: SF-295 CNS
BT-549 breast = system: BT-549 breast
ACHN renal = system: ACHN renal
U251 CNS = system: U251 CNS
786-0 renal = system: 786-0 renal
UO-31 renal = system: UO-31 renal
K-562 leukemia = system: K-562 leukemia
NCI-H23 lung = system: NCI-H23 lung
HL-60(TB) leukemia = system: HL-60(TB) leukemia
DU-145 prostate = system: DU-145 prostate
MDA-MB-231 breast = system: MDA-MB-231 breast
SW-620 colon = system: SW-620 colon
HCT-116 colon = system: HCT-116 colon
NCI-H226 lung = system: NCI-H226 lung
A549 NSCLC = system: A549 NSCLC
MCF7 breast = system: MCF7 breast
HOP-62 NSCLC = system: HOP-62 NSCLC
IGROV1 ovarian = system: IGROV1 ovarian
HT29 colon = system: HT29 colon
HCC-2998 colon = system: HCC-2998 colon
HOP-92 NSCLC = system: HOP-92 NSCLC
LOX IMVI melanoma = system: LOX IMVI melanoma
TK-10 renal = system: TK-10 renal
SN12C renal = system: SN12C renal
SR leukemia = system: SR leukemia
PC-3 prostate = system: PC-3 prostate
NCI-H522 lung = system: NCI-H522 lung
HS 578T breast = system: HS 578T breast
UACC-62 melanoma = system: UACC-62 melanoma
SNB-19 CNS = system: SNB-19 CNS
SK-MEL-2 melanoma = system: SK-MEL-2 melanoma
EKVX NSCLC = system: EKVX NSCLC
KM12 colon = system: KM12 colon
MDA-MB-435 = system: MDA-MB-435
OVCAR-8 ovarian = system: OVCAR-8 ovarian
NCI/ADR-RES ovarian = system: NCI/ADR-RES ovarian
SK-OV-3 ovarian = system: SK-OV-3 ovarian
A498 renal = system: A498 renal
SK-MEL-5 melanoma = system: SK-MEL-5 melanoma

CC(Nc1c(C#N)cnc2ccc(-c3cncc(-c4n[nH]c(=O)o4)c3)cc12)c1ccccc1 (centres undefined)
GI50 (SNB-75 CNS): 2.15 µM | TGI (SNB-75 CNS): 7.76 µM | GI50 (SK-MEL-28 melanoma): 3.4 µM | TGI (SK-MEL-28 melanoma): 14.7 µM | GI50 (NCI-H460 lung): 3.2 µM | TGI (NCI-H460 lung): 14.9 µM | GI50 (SF-539 CNS): 2.53 µM | TGI (SF-539 CNS): 10.3 µM | GI50 (COLO 205 colon): 2.85 µM | TGI (COLO 205 colon): 14.8 µM | GI50 (CCRF-CEM leukemia): 3.7 µM | TGI (CCRF-CEM leukemia): > 100 µM | GI50 (T-47D breast): 2.36 µM | TGI (T-47D breast): > 100 µM | GI50 (OVCAR-3 ovarian): 1.92 µM | TGI (OVCAR-3 ovarian): 5.47 µM | GI50 (MOLT-4 leukemia): 3.02 µM | TGI (MOLT-4 leukemia): 76 µM | GI50 (CAKI-1 renal): 3.69 µM | TGI (CAKI-1 renal): 34.5 µM | GI50 (M14 melanoma): 3.87 µM | TGI (M14 melanoma): 33.4 µM | GI50 (OVCAR-4 ovarian): 2.84 µM | TGI (OVCAR-4 ovarian): 24.3 µM | GI50 (UACC-257 melanoma): 4.48 µM | TGI (UACC-257 melanoma): 22.5 µM | GI50 (SF-268 CNS): 2.62 µM | TGI (SF-268 CNS): 9.88 µM | GI50 (RPMI-8226 leukemia): 2.52 µM | TGI (RPMI-8226 leukemia): > 100 µM | GI50 (OVCAR-5 ovarian): 3.6 µM | TGI (OVCAR-5 ovarian): 22.9 µM | GI50 (HCT-15 colon): 3.06 µM | TGI (HCT-15 colon): 13.2 µM | GI50 (MALME-3M melanoma): 2.17 µM | TGI (MALME-3M melanoma): 9.36 µM | GI50 (SF-295 CNS): 2.64 µM | TGI (SF-295 CNS): 10.3 µM | GI50 (BT-549 breast): 1.35 µM | TGI (BT-549 breast): 5.48 µM | GI50 (ACHN renal): 3.57 µM | TGI (ACHN renal): 13.3 µM | GI50 (U251 CNS): 2.36 µM | TGI (U251 CNS): 14.4 µM | GI50 (786-0 renal): 2.44 µM | TGI (786-0 renal): 24.2 µM | GI50 (UO-31 renal): 1.77 µM | TGI (UO-31 renal): 8.79 µM | GI50 (K-562 leukemia): 4.42 µM | TGI (K-562 leukemia): > 100 µM | GI50 (NCI-H23 lung): 3.12 µM | TGI (NCI-H23 lung): 14.5 µM | GI50 (HL-60(TB) leukemia): 8.19 µM | TGI (HL-60(TB) leukemia): 72.5 µM | GI50 (DU-145 prostate): 2.98 µM | TGI (DU-145 prostate): 15.6 µM | GI50 (MDA-MB-231 breast): 2.15 µM | TGI (MDA-MB-231 breast): 9.65 µM | GI50 (SW-620 colon): 3.39 µM | TGI (SW-620 colon): 18.9 µM | GI50 (HCT-116 colon): 2.65 µM | TGI (HCT-116 colon): 8.75 µM | GI50 (NCI-H226 lung): 2.56 µM | TGI (NCI-H226 lung): 13.8 µM | GI50 (A549 NSCLC): 3.64 µM | TGI (A549 NSCLC): 29.2 µM | GI50 (MCF7 breast): 2.64 µM | TGI (MCF7 breast): 15.8 µM | GI50 (HOP-62 NSCLC): 3.51 µM | TGI (HOP-62 NSCLC): 24.7 µM | GI50 (IGROV1 ovarian): 1.55 µM | TGI (IGROV1 ovarian): 4.77 µM | GI50 (HT29 colon): 3.66 µM | TGI (HT29 colon): 31.1 µM | GI50 (HCC-2998 colon): 3.48 µM | TGI (HCC-2998 colon): 14.1 µM | GI50 (HOP-92 NSCLC): 2 µM | TGI (HOP-92 NSCLC): 7.27 µM | GI50 (LOX IMVI melanoma): 1.94 µM | TGI (LOX IMVI melanoma): 8.44 µM | GI50 (TK-10 renal): 3.83 µM | TGI (TK-10 renal): 44.6 µM | GI50 (SN12C renal): 2.73 µM | TGI (SN12C renal): 13.7 µM | GI50 (SR leukemia): 2.79 µM | TGI (SR leukemia): 46.8 µM | GI50 (PC-3 prostate): 3.25 µM | TGI (PC-3 prostate): > 100 µM | GI50 (NCI-H522 lung): 3.31 µM | TGI (NCI-H522 lung): 16.2 µM | GI50 (HS 578T breast): 1.9 µM | TGI (HS 578T breast): 5.47 µM | GI50 (UACC-62 melanoma): 1.96 µM | TGI (UACC-62 melanoma): 4.87 µM | GI50 (SNB-19 CNS): 2.77 µM | TGI (SNB-19 CNS): 14.6 µM | GI50 (SK-MEL-2 melanoma): 2.24 µM | TGI (SK-MEL-2 melanoma): 6.66 µM | GI50 (EKVX NSCLC): 2.46 µM | TGI (EKVX NSCLC): 8.59 µM | GI50 (KM12 colon): 3.65 µM | TGI (KM12 colon): 17.2 µM | GI50 (MDA-MB-435): 3.59 µM | TGI (MDA-MB-435): 29.5 µM | GI50 (OVCAR-8 ovarian): 3.63 µM | TGI (OVCAR-8 ovarian): 32.9 µM | GI50 (NCI/ADR-RES ovarian): 20.2 µM | TGI (NCI/ADR-RES ovarian): 81.4 µM | GI50 (SK-OV-3 ovarian): 4.51 µM | TGI (SK-OV-3 ovarian): 28.3 µM | GI50 (A498 renal): 1.77 µM | TGI (A498 renal): 5.95 µM | GI50 (SK-MEL-5 melanoma): 1.68 µM | TGI (SK-MEL-5 melanoma): 3.07 µM
